Reference: PMC11901561, “Free Radical Scavenging Activity and Inhibition of Enzyme-Catalyzed Oxidation by trans-aryl-Palladium Complexes” (Molecules, 2025)
Like-named read-outs stand apart in the source and are kept apart here.

Key:
[1] = ABTS radical scavenging test (spectrophotometric, 734 nm); settings: concentration scavenging 50% of ABTS•+; MeOH, 30 min; mean ± SD
Protocol: (§1) Radical scavenging capacity, as an indicator of the antioxidant capacity of compounds against 1,1-diphenyl-2-picrylhydrazyl (DPPH) free radicals and 2,2-azinobis (3-ethyl- enzothiazoline-6-sulfonic acid), ABTS•+ radical cations, was determined using a spectrophotometric assay. Antiradical capacity analysis was performed either on pure MeOH for ABTS or the mixture of MeOH/distilled water (90:10 v/v) for DPPH. For both ABTS and DPPH assays, the stock solutions of complexes were prepared in DMSO. Quercetin was used as an antioxidant standard in the DPPH and ABTS•+ scavenging tests. EC50 is defined as the concentration of compound (µM) required to scavenge 50% of ABTS•+ or DPPH radicals. EC50 values were estimated using nonlinear regression. A lower EC50 value indicates higher antiradical activity.
The ABTS assay was based on the method described by Re et al.. For the generation of ABTS•+ radicals, sodium persulfate (2.45 mM) aqueous solution was mixed with ABTS (7 mM) and incubated overnight in the dark to obtain a dark colored solution. The stock solution of ABTS•+ was then diluted by adding pure methanol (100%) to obtain an absorbance of 0.70 (±0.02) at 734 nm at 30 °C. An aliquot of 0.02 mL of tested compound was added to 1.98 mL of ABTS•+, and the decrease in absorbance was monitored at 734 nm after 30 min [80]. During this reaction, the blue green ABTS radical cation is converted back into its colorless neutral form in the presence of the potential antioxidant molecule. A control consisted of 0.02 mL of DMSO in 1.98 mL of ABTS•+ solution. The reducing capacity was determined according to the following formula:% inhibition = (A control − A Sample) × 100/A Control (1)
(§2) Results were expressed as mean values ± standard deviation (SD). All measurements were replicated three times. EC50 values were calculated with GraphPad Prism 6.0 (GraphPad Software, San Diego, CA, USA) under the application of the function “log (inhibitor) versus normalized response-variable slope” after converting the concentrations into their decimal logarithm. The results were analyzed using Student’s test and a two-way analysis of variance (ANOVA), and a multiple comparison of all data was performed using Tukey’s multiple comparisons test. p < 0.0001 was considered significant.

[2] = DPPH radical scavenging test (spectrophotometric, 517 nm)
Protocol: as §1, with “EC50 is defined as the concentration of compound (µM) required to scavenge 50% of ABTS•+ or DPPH radicals.” left out
The DPPH assay was performed according to the method developed by Brand-Williams et al. slightly modified. A solution of 1 mM DPPH in 90% (v/v) methanol was stirred for 40 min. The absorbance of the solution was adjusted to 0.650 ± 0.020 at 517 nm using fresh 90% (v/v) methanol. Then, 0.02 mL of quercetin taken as a standard or sample was mixed with 1.98 mL of DPPH solution and incubated for 30 min in the dark covered with aluminum foil. When reacting with an antioxidant, the DPPH• radical is converted into DPPH, and its color changes from purple to yellow. The antioxidant effect may be easily evaluated by observing the decrease in visible absorption. The absorbance decrease was monitored at 517 nm after 30 min of incubation with a Hewlett Packard 8453 spectrophotometer. The control consisted of 0.02 mL of DMSO in 1.98 mL of DPPH solution. A similar formula (Equation (1)) was applied to determine the DPPH radical scavenging activity.
as §2

[3] = Antiradical efficiency (kinetic study via DPPH assay)
Protocol: The reaction between potential antioxidants and the oxidized substrate requires a steady state which will depend on several parameters, such as the reaction time. The time needed to reach the steady state, at the concentration corresponding to EC50, is more and more frequently used and can be defined as TEC50. In brief, TEC50 was determined by plotting the recorded absorbance during the period for the EC50 concentration for the considered antioxidant compound. […] The antiradical efficiency of compounds and their classification are considered according to the work of Sanchez-Moreno [69].

[4] = molecular target: T1, horseradish peroxidase (HRP) (Armoracia rusticana, UniProt P00433); experiment: biochemical; type: biochemical
T1 sequence (P00433 31-338 limits assumed): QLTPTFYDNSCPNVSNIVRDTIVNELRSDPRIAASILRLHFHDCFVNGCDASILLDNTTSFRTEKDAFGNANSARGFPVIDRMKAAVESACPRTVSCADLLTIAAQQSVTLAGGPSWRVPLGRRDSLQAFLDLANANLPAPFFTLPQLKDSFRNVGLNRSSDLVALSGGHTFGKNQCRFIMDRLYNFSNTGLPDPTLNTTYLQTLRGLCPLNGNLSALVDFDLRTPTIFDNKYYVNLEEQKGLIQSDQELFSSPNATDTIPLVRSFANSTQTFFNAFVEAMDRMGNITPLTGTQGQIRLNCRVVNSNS
Protocol: To investigate the effect of selected palladium (II)-based complexes on the peroxidase (HRP)-catalyzed oxidation of the chemiluminescent probe (L-012), in the presence of hydrogen peroxide (H2O2), the chemiluminescence technique was used. Briefly, plate-reader-based luminescence measurements were performed in white 96-well plates using a Fluoroskan Ascent FL microplate reader (Thermo Labsystems, Vantaa, Finland), with the temperature set at 37 °C. To 5 µL of a stock solution of HRP (1 mg/mL) in phosphate buffer (pH = 7.5) per well, we successively added 10 µL of L-012 (aqueous solution, 0.84 mmoL) and 2 µL of tested compound in 163 µL of buffer solution. The reaction was triggered by adding 20 µL hydrogen peroxide (0.19 µM) to reach the final volume of 200 µL. The light emission, produced from oxidation of L-012 by HRP/H2O2 system, in the presence or absence of the tested palladium complex, was recorded in kinetic mode for 30 min. Inhibition of the emitted light due to tested complexes was associated with higher activity. The following formula was applied to calculate the inhibiting activity of complexes towards the oxidation of L-012 catalyzed by the HRP/H2O2 system:% inhibition = (L control − L Sample) x 100/L Control
as §2

[5] = design: method as in earlier work; settings: values reported in the literature ref 60; read-out: EC50 ABTS, literature values; cited from earlier work
[6] = cited from earlier work

For `O=c1c(O)c(-c2ccc(O)c(O)c2)oc2cc(O)cc(O)c12` [Qrcn, Quercetin, reference compound], the EC50 [1] was 5.56 ± 0.97 µM, the “EC50 (g Antioxidant/kg DPPH°)” value ([2]; EC50 expressed as weight of antioxidant per kg of DPPH radical) was 87.98 ± 15 g Antioxidant/kg DPPH° and the EC50 ([2]; concentration scavenging 50% of DPPH, 90% MeOH, 30 min, mean ± SD) was 5.79 ± 1 µM. The “AE (antiradical efficiency)” value ([3]; AE = 1/EC50.TEC50, DPPH) was 0.1873 ×10^−3, the “Classification of antiradical efficiency” value ([3]; according to Sanchez-Moreno, from AE value) was “Low” and the TEC50 ([3]; time needed to reach the steady state at the EC50 concentration, DPPH) was 61 min. For the same molecule, the “Effect on chemiluminescence at lowest concentrations” value ([4]; 1, 5, and 10 µM, HRP-H2O2/L-012) was “weak effect”, the EC50 ([4]; HRP-H2O2/L-012 system, pH 7.5, 37 °C, 30 min, read-out: EC50 chemiluminescence assay) was 7.06 ± 2.56 µM and the EC50 [5] was ~15 µM. For the same molecule, the “EC50 (g antioxidant per Kg of DPPH), literature value” [6] was 84 ± 6 g/kg.
